Reference: patent US6399629B1, “Efflux pump inhibitors” (priority 1998, dated 2002)

Tested on: Pseudomonas aeruginosa PAM1001
Assay: checkerboard assay (broth microdilution): levofloxacin MIC in presence of efflux pump inhibitor
Assay type: cell-based
Procedure, shortened: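 Checkerboard broth microdilution in Mueller Hinton Broth against P. aeruginosa PAM1001 (5×10^5 CFU/mL, early-log inoculum), levofloxacin and efflux pump inhibitor (up to 40 μg/mL) diluted along crossing axes. Plates incubated 20 h at 35° C; growth read at 650 nm and visually. Potentiation scored as reduced levofloxacin MIC.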

N=C(N)N[C@H]1CN[C@H](C(=O)N[C@H](CCc2ccccc2)C(=O)Nc2cnc3ccccc3c2)C1 [Compound M95, (2S,4R)-4-(Guanadinyl)-N-[(1R)-3-phenyl-1-(3-quinolylcarbamoyl)propyl]-2-pyrrolidinecarboxamide]
Levofloxacin MIC Against P. aerugiuosa PAM1001 in Presence of Efflux Pump Inhibitor (EPI), Minimum Inhibitory Concentration (EPI Conc. 0 μg/mL): 4 µg/mL | Levofloxacin MIC Against P. aerugiuosa PAM1001 in Presence of Efflux Pump Inhibitor (EPI), Minimum Inhibitory Concentration (EPI Conc. 0.625 μg/mL): 4 µg/mL | Levofloxacin MIC Against P. aerugiuosa PAM1001 in Presence of Efflux Pump Inhibitor (EPI), Minimum Inhibitory Concentration (EPI Conc. 1.25 μg/mL): 4 µg/mL | Levofloxacin MIC Against P. aerugiuosa PAM1001 in Presence of Efflux Pump Inhibitor (EPI), Minimum Inhibitory Concentration (EPI Conc. 2.5 μg/mL): 4 µg/mL | Levofloxacin MIC Against P. aerugiuosa PAM1001 in Presence of Efflux Pump Inhibitor (EPI), Minimum Inhibitory Concentration (EPI Conc. 5 μg/ mL): 4 µg/mL | Levofloxacin MIC Against P. aerugiuosa PAM1001 in Presence of Efflux Pump Inhibitor (EPI), Minimum Inhibitory Concentration (EPI Conc. 10 μg/mL): 4 µg/mL | Levofloxacin MIC Against P. aerugiuosa PAM1001 in Presence of Efflux Pump Inhibitor (EPI), Minimum Inhibitory Concentration (EPI Conc. 20 μg/mL): 0.03 µg/mL | Levofloxacin MIC Against P. aerugiuosa PAM1001 in Presence of Efflux Pump Inhibitor (EPI), Minimum Inhibitory Concentration (EPI Conc. 40 μg/mL): 0.015 µg/mL

CC(C)C[C@H](COc1ccc2ccccc2c1)NC(=O)[C@H]1C[C@H](NC(=O)CN)CN1 [Compound M49, (2R,4S)-4-(2-Aminoacetamideo)-N-[(1R)-3-methyl-1-[(2-naphthyloxy)methyl]butyl]-2-pyrrolidinecarboxamide]
Levofloxacin MIC Against P. aerugiuosa PAM1001 in Presence of Efflux Pump Inhibitor (EPI), Minimum Inhibitory Concentration (EPI Conc. 0 μg/mL): 4 µg/mL | Levofloxacin MIC Against P. aerugiuosa PAM1001 in Presence of Efflux Pump Inhibitor (EPI), Minimum Inhibitory Concentration (EPI Conc. 0.625 μg/mL): 4 µg/mL | Levofloxacin MIC Against P. aerugiuosa PAM1001 in Presence of Efflux Pump Inhibitor (EPI), Minimum Inhibitory Concentration (EPI Conc. 1.25 μg/mL): 4 µg/mL | Levofloxacin MIC Against P. aerugiuosa PAM1001 in Presence of Efflux Pump Inhibitor (EPI), Minimum Inhibitory Concentration (EPI Conc. 2.5 μg/mL): 4 µg/mL | Levofloxacin MIC Against P. aerugiuosa PAM1001 in Presence of Efflux Pump Inhibitor (EPI), Minimum Inhibitory Concentration (EPI Conc. 5 μg/ mL): 4 µg/mL | Levofloxacin MIC Against P. aerugiuosa PAM1001 in Presence of Efflux Pump Inhibitor (EPI), Minimum Inhibitory Concentration (EPI Conc. 10 μg/mL): 1 µg/mL | Levofloxacin MIC Against P. aerugiuosa PAM1001 in Presence of Efflux Pump Inhibitor (EPI), Minimum Inhibitory Concentration (EPI Conc. 20 μg/mL): 0.125 µg/mL | Levofloxacin MIC Against P. aerugiuosa PAM1001 in Presence of Efflux Pump Inhibitor (EPI), Minimum Inhibitory Concentration (EPI Conc. 40 μg/mL): 0.06 µg/mL

CC(C)(C)c1ccc2ncc(NC(=O)[C@H]3C[C@H](CN)CN3)cc2c1 [Compound M97, (2R,4R)-4-(Aminomethyl)-N-[6-(1,1-dimethyl)ethyl-3-quiolyl]-2-pyrrolidinecarboxamide]
Levofloxacin MIC Against P. aerugiuosa PAM1001 in Presence of Efflux Pump Inhibitor (EPI), Minimum Inhibitory Concentration (EPI Conc. 0 μg/mL): 4 µg/mL | Levofloxacin MIC Against P. aerugiuosa PAM1001 in Presence of Efflux Pump Inhibitor (EPI), Minimum Inhibitory Concentration (EPI Conc. 0.625 μg/mL): 4 µg/mL | Levofloxacin MIC Against P. aerugiuosa PAM1001 in Presence of Efflux Pump Inhibitor (EPI), Minimum Inhibitory Concentration (EPI Conc. 1.25 μg/mL): 4 µg/mL | Levofloxacin MIC Against P. aerugiuosa PAM1001 in Presence of Efflux Pump Inhibitor (EPI), Minimum Inhibitory Concentration (EPI Conc. 2.5 μg/mL): 2 µg/mL | Levofloxacin MIC Against P. aerugiuosa PAM1001 in Presence of Efflux Pump Inhibitor (EPI), Minimum Inhibitory Concentration (EPI Conc. 5 μg/ mL): 0.5 µg/mL | Levofloxacin MIC Against P. aerugiuosa PAM1001 in Presence of Efflux Pump Inhibitor (EPI), Minimum Inhibitory Concentration (EPI Conc. 10 μg/mL): 0.125 µg/mL | Levofloxacin MIC Against P. aerugiuosa PAM1001 in Presence of Efflux Pump Inhibitor (EPI), Minimum Inhibitory Concentration (EPI Conc. 20 μg/mL): 0.015 µg/mL | Levofloxacin MIC Against P. aerugiuosa PAM1001 in Presence of Efflux Pump Inhibitor (EPI), Minimum Inhibitory Concentration (EPI Conc. 40 μg/mL): 0.008 µg/mL

NCC(=O)N[C@H]1CN[C@H](C(=O)N[C@H](CCc2ccccc2)c2nc3ccccc3o2)C1 [Compound M77, (2S,4R)-4-(2-Aminoacetamido)-N-[(1R)-1-(2-benzoxazolyl)-3-pheylpropyl]-2-pyrrolidinexarboxamide]
Levofloxacin MIC Against P. aerugiuosa PAM1001 in Presence of Efflux Pump Inhibitor (EPI), Minimum Inhibitory Concentration (EPI Conc. 0 μg/mL): 4 µg/mL | Levofloxacin MIC Against P. aerugiuosa PAM1001 in Presence of Efflux Pump Inhibitor (EPI), Minimum Inhibitory Concentration (EPI Conc. 0.625 μg/mL): 4 µg/mL | Levofloxacin MIC Against P. aerugiuosa PAM1001 in Presence of Efflux Pump Inhibitor (EPI), Minimum Inhibitory Concentration (EPI Conc. 1.25 μg/mL): 4 µg/mL | Levofloxacin MIC Against P. aerugiuosa PAM1001 in Presence of Efflux Pump Inhibitor (EPI), Minimum Inhibitory Concentration (EPI Conc. 2.5 μg/mL): 4 µg/mL | Levofloxacin MIC Against P. aerugiuosa PAM1001 in Presence of Efflux Pump Inhibitor (EPI), Minimum Inhibitory Concentration (EPI Conc. 5 μg/ mL): 4 µg/mL | Levofloxacin MIC Against P. aerugiuosa PAM1001 in Presence of Efflux Pump Inhibitor (EPI), Minimum Inhibitory Concentration (EPI Conc. 10 μg/mL): 4 µg/mL | Levofloxacin MIC Against P. aerugiuosa PAM1001 in Presence of Efflux Pump Inhibitor (EPI), Minimum Inhibitory Concentration (EPI Conc. 20 μg/mL): 2 µg/mL | Levofloxacin MIC Against P. aerugiuosa PAM1001 in Presence of Efflux Pump Inhibitor (EPI), Minimum Inhibitory Concentration (EPI Conc. 40 μg/mL): 0.125 µg/mL

NCC(=O)N[C@H]1CN[C@H](c2nc3ccc(Cc4ccccc4)cc3[nH]2)C1 [Compound M73, (2S,4R)-4-(2-Aminoacetamido)-2-(5-benzyl-2-benzmidazolyl)pyrrolidine]
Levofloxacin MIC Against P. aerugiuosa PAM1001 in Presence of Efflux Pump Inhibitor (EPI), Minimum Inhibitory Concentration (EPI Conc. 0 μg/mL): 4 µg/mL | Levofloxacin MIC Against P. aerugiuosa PAM1001 in Presence of Efflux Pump Inhibitor (EPI), Minimum Inhibitory Concentration (EPI Conc. 0.625 μg/mL): 4 µg/mL | Levofloxacin MIC Against P. aerugiuosa PAM1001 in Presence of Efflux Pump Inhibitor (EPI), Minimum Inhibitory Concentration (EPI Conc. 1.25 μg/mL): 4 µg/mL

NC[C@@H]1CN[C@@H](C(=O)N[C@H](CCc2ccccc2)C(=O)Nc2ccc3ncccc3c2)C1 [Compound M29, (2R,4R)-4-(Aminomethyl)-N-[(1R)-3-pheyl-1-(6-quinolylcarbamoyl)propyl]-2-pyrrolidinecarboxamide]
Levofloxacin MIC Against P. aerugiuosa PAM1001 in Presence of Efflux Pump Inhibitor (EPI), Minimum Inhibitory Concentration (EPI Conc. 0 μg/mL): 4 µg/mL | Levofloxacin MIC Against P. aerugiuosa PAM1001 in Presence of Efflux Pump Inhibitor (EPI), Minimum Inhibitory Concentration (EPI Conc. 0.625 μg/mL): 4 µg/mL | Levofloxacin MIC Against P. aerugiuosa PAM1001 in Presence of Efflux Pump Inhibitor (EPI), Minimum Inhibitory Concentration (EPI Conc. 1.25 μg/mL): 4 µg/mL | Levofloxacin MIC Against P. aerugiuosa PAM1001 in Presence of Efflux Pump Inhibitor (EPI), Minimum Inhibitory Concentration (EPI Conc. 2.5 μg/mL): 2 µg/mL | Levofloxacin MIC Against P. aerugiuosa PAM1001 in Presence of Efflux Pump Inhibitor (EPI), Minimum Inhibitory Concentration (EPI Conc. 5 μg/ mL): 1 µg/mL | Levofloxacin MIC Against P. aerugiuosa PAM1001 in Presence of Efflux Pump Inhibitor (EPI), Minimum Inhibitory Concentration (EPI Conc. 10 μg/mL): 0.25 µg/mL | Levofloxacin MIC Against P. aerugiuosa PAM1001 in Presence of Efflux Pump Inhibitor (EPI), Minimum Inhibitory Concentration (EPI Conc. 20 μg/mL): 0.06 µg/mL | Levofloxacin MIC Against P. aerugiuosa PAM1001 in Presence of Efflux Pump Inhibitor (EPI), Minimum Inhibitory Concentration (EPI Conc. 40 μg/mL): 0.03 µg/mL

CC(C)(C)c1ccc2nc(CNC(=O)[C@@H]3C[C@@H](NC(=O)CN)CN3)[nH]c2c1 [Compound M81]
Levofloxacin MIC Against P. aerugiuosa PAM1001 in Presence of Efflux Pump Inhibitor (EPI), Minimum Inhibitory Concentration (EPI Conc. 0 μg/mL): 4 µg/mL | Levofloxacin MIC Against P. aerugiuosa PAM1001 in Presence of Efflux Pump Inhibitor (EPI), Minimum Inhibitory Concentration (EPI Conc. 0.625 μg/mL): 4 µg/mL | Levofloxacin MIC Against P. aerugiuosa PAM1001 in Presence of Efflux Pump Inhibitor (EPI), Minimum Inhibitory Concentration (EPI Conc. 1.25 μg/mL): 4 µg/mL | Levofloxacin MIC Against P. aerugiuosa PAM1001 in Presence of Efflux Pump Inhibitor (EPI), Minimum Inhibitory Concentration (EPI Conc. 2.5 μg/mL): 4 µg/mL | Levofloxacin MIC Against P. aerugiuosa PAM1001 in Presence of Efflux Pump Inhibitor (EPI), Minimum Inhibitory Concentration (EPI Conc. 5 μg/ mL): 2 µg/mL | Levofloxacin MIC Against P. aerugiuosa PAM1001 in Presence of Efflux Pump Inhibitor (EPI), Minimum Inhibitory Concentration (EPI Conc. 10 μg/mL): 1 µg/mL | Levofloxacin MIC Against P. aerugiuosa PAM1001 in Presence of Efflux Pump Inhibitor (EPI), Minimum Inhibitory Concentration (EPI Conc. 20 μg/mL): 0.25 µg/mL | Levofloxacin MIC Against P. aerugiuosa PAM1001 in Presence of Efflux Pump Inhibitor (EPI), Minimum Inhibitory Concentration (EPI Conc. 40 μg/mL): 0.03 µg/mL

NCC(=O)N[C@H]1CN[C@@H](C(=O)N[C@H](Cc2ccc(F)cc2)C(=O)Nc2cnc3ccccc3c2)C1 [Compound M20, (2R,4R)-4-(2-Aminoacetamideo)-N-[(1R)-2-(4-fluorophenyl)-1-(3-quinolylcarbamoyl)ethyl]-2-pyrrolidinecarboxamide]
Levofloxacin MIC Against P. aerugiuosa PAM1001 in Presence of Efflux Pump Inhibitor (EPI), Minimum Inhibitory Concentration (EPI Conc. 0 μg/mL): 4 µg/mL | Levofloxacin MIC Against P. aerugiuosa PAM1001 in Presence of Efflux Pump Inhibitor (EPI), Minimum Inhibitory Concentration (EPI Conc. 0.625 μg/mL): 4 µg/mL | Levofloxacin MIC Against P. aerugiuosa PAM1001 in Presence of Efflux Pump Inhibitor (EPI), Minimum Inhibitory Concentration (EPI Conc. 1.25 μg/mL): 4 µg/mL | Levofloxacin MIC Against P. aerugiuosa PAM1001 in Presence of Efflux Pump Inhibitor (EPI), Minimum Inhibitory Concentration (EPI Conc. 2.5 μg/mL): 4 µg/mL | Levofloxacin MIC Against P. aerugiuosa PAM1001 in Presence of Efflux Pump Inhibitor (EPI), Minimum Inhibitory Concentration (EPI Conc. 5 μg/ mL): 2 µg/mL | Levofloxacin MIC Against P. aerugiuosa PAM1001 in Presence of Efflux Pump Inhibitor (EPI), Minimum Inhibitory Concentration (EPI Conc. 10 μg/mL): 0.50 µg/mL | Levofloxacin MIC Against P. aerugiuosa PAM1001 in Presence of Efflux Pump Inhibitor (EPI), Minimum Inhibitory Concentration (EPI Conc. 20 μg/mL): 0.125 µg/mL | Levofloxacin MIC Against P. aerugiuosa PAM1001 in Presence of Efflux Pump Inhibitor (EPI), Minimum Inhibitory Concentration (EPI Conc. 40 μg/mL): 0.015 µg/mL
